Series [1] in a line: Isothermal titration calorimeter (ITC), binding of Gd^3+ to ligand. As to conditions: 25° C., pH = 4.5, read-out: Kd (dissociation constant). How it is done:
In order to quantify binding isotherms of paramagnetic metal ions Gd^3+ with a ligand solution, an ITC test is executed at a VP-ITC isothermal titration microcalorimeter (Microcal, USA). Data collection, analysis and plotting are executed with help of software package Origin, version 8.0 from Microcal. A sample cell has a 1.43 mL volume. The cell is filled with a water-soluble buffer solution of the above compound 1a-e ligand (0.2 mM). A water-soluble buffer solution of Gd^3+ (1.0 mM) is input into a 300 μL continuous agitated (300 rpm) syringe and 10 μL aliquots thereof is injected into the cell. At a 3-mins interval, the cell is delivered over 20 s. Data points are collected on a 2 s basis. The measurement is executed at 25° C. All titrations are executed three times to secure data consistency and solution stability. These titration isotherms are integrated to find out an enthalpy change at each injection. In order to fit well with two mathematically different sets of site models, the titration isotherms are analyzed. Via a calorie measurement, parameters including a binding constant (Ka), a change in enthalpy (ΔH), a stoichiometry of binding (N) are calculated. Next, a free energy (ΔG) and an entropy change (ΔS) are calculated using a following complexation equation: Mn++nL↔MLn:ΔG=−RT·InKa=ΔH-TΔS,
where, R indicates a universal gas constant; T is Kelvin temperature.

A short description of series [2]: Relaxation rate measurement (R1, R2) in PBS and in PBS solution of HSA. Format: physicochemical. To be noted: 293K. How it is done: T1 measurement is carried out using an inversion recovery method at 1.5 T (64 MHz) in a variable inverse time (TI). MR images are obtained for 35 different TI values in a range of 50 to 1750 ms. A T1 relaxation time is obtained from a nonlinear least-squares fit of a signal strength measured at each TI value. For a T2 CPMG (Carr-Purcell-Meiboon-Gill) pulse sequence measurement, the measurement is adapted to a multi spin-echo measurement. 34 images are obtained at 34 different echo time (TE) values in a range of 10 to 1900 ms. The T2 relaxation time is obtained from a nonlinear least-squares fit of mean pixel values for multi spin-echo measurement at each echo time. Next, a relaxation rate (R1 and R2) is calculated as an inverse of a relaxation time per mM. The determined relaxation time (T1 and T2) and relaxation rate (R1 and R2) are subjected to an image processing to get a relaxation time map and relaxation rate respectively.
For comparison between the complexes 2a-e, there is no noticeable difference in R1's. The measurement is carried out for two different media, that is, PBS (pH=7.4) and PBS solution of HAS in order to indicate which blood-pool effect is expressed by the complexes 2a-e.

Series [3] has as its system ICR mice. The series is described as follows: In vivo MR experiment, T1-weighted images after tail vein injection. To be noted: 0.1 mmol Gd/kg i.v. How it is done:
The in vivo experiment is executed with compliance to a regulation of Animal Research Committee of KNU. 29-31 g weight 6-weeks male ICR mice are used. […] The measurement is carried out before and after the injection of the complexes 2a-e through the tail vein. […] After the mice wake from the anesthesia after each measurement, the mice were placed in a cage capable of free access to feed and food. For this measurement, the animals are held at about 37° C. using a warm water blanket. MR images are taken using a 1.5 T MR unit (GE Healthcare, Milwaukee, Wis.) with a manual RF coil for a small animal. The coil may be of a receiver type having a 50 mm inner diameter. […] MR images are collected for 24 h after the injection. Anatomical positions having an improved contrast are set for a liver, a bile duct, and a kidney on (post contrast) MR images. For quantitative measurements, a signal intensity in a region of interest (ROI) is measured using Advantage Window software (GE medical, U.S.). The CNR is calculated using a following equation (1): […] SNR is a […].

Series [4] is described as follows: Kinetic stability in various pH ranges (evolution of R1 in PBS). Format: physicochemical. To be noted: pH 1, [Gd]=1.0 mM in PBS, room temperature. How it is done: The kinetic stability is expressed as evolution of a water proton relaxation rate (R1) for 2 ([Gd]=1.0 mM) in PBS under various pH conditions (pH: 1, 3, 5, 7, 9 and 11) at a room temperature, as a function of the incubation time. The measurement is executed on a 1.5 T whole body system (GE Healthcare, Milwaukee, Wis., USA).

Series [5] is described as follows: Stability against hydrolysis in H2O (HPLC, 197 nm). The class given is physicochemical. To be noted: for HPLC peak 2.31 min, 2b / HPLC peak 27.11 min, 2a (trans) / HPLC peak 30.48 min, 2a (cis) / HPLC peak 52.24 min: 2a in water. How it is done: The contrast agents of the present series 100 mg are dissolved in distilled water 10 mL and is maintained as they are for 72 hours at 50° C. Using HPLC, O.D. (Optical Density) values are read at 197 nm and the stability of the agents is determined. The substances at each retention time are examined using LC Mass Spectroscopy for accurate identification of decomposed products.

A short description of series [6]: Transmetalation kinetics with ZnCl2, evolution of R1P(t)/R1P(0). Format: physicochemical. As to conditions: 72 h; phosphate buffer pH 7.4, 2.5 mmol/L Gd complex + 2.5 mmol/L ZnCl2, room temperature, 3T. How it is done:
This experiment is prepared using a previous document method (Laurent, S. Elst, L. V.; Copoix, F.; Muller, R. N. Investigative radiology 2001, 36, 115). This is based on measurements of evolution of a water proton longitudinal relaxation rate (R1P) of a buffer solution (phosphate buffer, pH 7.4) containing 2.5 mmol/L gadolinium complex and 2.5 mmol/L ZnCl2. Next, 10 μL ZnCl2 250 mmol/L solution is added to a […] paramagnetic complex buffer solution. The mixture is strongly agitated, and then, 300 μL thereof is taken for a relaxation measurement (relaxometric measurement). […] A R1P relaxation rate is acquired by excluding a diamagnetic contribution of a water proton relaxation from the measured relaxation rate R1=(1/T1). The measurement is performed at a room temperature on a 3T whole body system (Magnetom Tim Trio, Simens, Korea Institute of Radiological & Medical Science).
An evaluation of a normal paramagnetic longitudinal relaxation rate R1P (t)/R1P (0) is observed between the present series 2a-e and comparison examples Dotarem®, Primovist®, Multihance®, and Omniscan® (FIG. 4). The used complex in the test is divided into two following groups based on an evolution pattern: (i) a group employing a macrocyclic chelate (ii) a group employing an acyclic chelate. […]

Where [7] appears, read: PBS solution of 0.67 mM HSA, 64 MHz.

Entries after “also recorded” stand apart in the source; their conditions may differ.

With `NC1CCC(NC(=O)CN2CCN(CC(=O)O)CCN(CC(=O)O)CCN(CC(=O)O)CC2)CC1` (stereo not shown) [1d], the Kd in series [1] was found to be 29.3 µM.
In series [2] (PBS pH 7.4, 64 MHz (1.5 T)), `CCOC(=O)C1CCC(CNC(=O)CN2CCN(CC(=O)[O-])CCN(CC(=O)[O-])CCN(CC(=O)[O-])CC2)CC1.[Gd+3]` (stereo not shown) [2a] registered an R1 of 4.84 ± 0.18 mM⁻¹ s⁻¹ and an R2 of 4.91 ± 0.25 mM⁻¹ s⁻¹. In series [2] (setting [7]), the “R1 in 0.67 mM HSA” value worked out at 5.11 ± 0.10 mM⁻¹ s⁻¹ and the “R2 in 0.67 mM HSA” value came out at 6.04 ± 0.13 mM⁻¹ s⁻¹. In series [3] (ICR mice, 1.5 T, initial 1 hour), the “signal enhancement / signal strength at the liver” value is on record as “insufficient to be qualified as the liver-specific contrast agent”. In series [3] (in vivo MR images of mice), the “liver-specificity / class of contrast agent” value is on record as “exhibits the liver-specificity; also recorded: true liver-specific contrast agent”. In addition, the “kinetic stability (evolution of R1)” value in series [4] was “sufficient kinetic stability”. Further, the “hydrolytic stability (in words)” value in series [5] (100 mg in distilled water 10 mL, 72 hours at 50° C.) is “hydrolytic stability falls”. In series [5] (50° C./3 day), the “HPLC peak 2.31 min, 2b” value is reported as 0.72%; the “HPLC peak 27.11 min, 2a (trans)” value worked out at 97.43%; the “HPLC peak 30.48 min, 2a (cis)” value was 1.25%; the “HPLC peak 52.24 min” value turned out to be 0.19%. Besides, in series [5] (initial), the “HPLC peak 2.31 min, 2b” value was determined as 0.01%; the “HPLC peak 27.11 min, 2a (trans)” value is recorded as 97.73%; the “HPLC peak 30.48 min, 2a (cis)” value was 1.89%; the “HPLC peak 52.24 min” value is on record as 0.04%.
On to `CNC[C@H](O)[C@@H](O)[C@H](O)[C@H](O)CO.CNC[C@H](O)[C@@H](O)[C@H](O)[C@H](O)CO.O=C([O-])CN(CCN(CC(=O)[O-])CC(=O)O)CCN(CC(=O)O)C(COCc1ccccc1)C(=O)[O-].[Gd+3]` (stereo not shown) [Multihance, Gd-BOPTA], for which, in series [6], the “portion of the initial paramagnetic relaxation rate kept, R1P(t)/R1P(0)” value stood at 50%.
Consider `CCOc1ccc(CC(CN(CCN(CC(=O)[O-])CC(=O)[O-])CC(=O)[O-])N(CC(=O)[O-])CC(=O)[O-])cc1.[Gd+3].[Na+].[Na+]` (stereo not shown) [Primovist, Gd-EOB-DTPA], for which, in series [6], the “portion of the initial paramagnetic relaxation rate kept, R1P(t)/R1P(0)” value was found to be 50%.

These data come from patent publication US10245328B2, “Gadolinium complex comprising DO3A-tranexamic acid conjugate” (KYUNGPOOK NATIONAL UNIVERSITY INDUSTRY-ACADEMIC COOPERATION …, priority 2014, dated 2019).
